Measured values published in patent US20250325529A1, “INHIBITORS OF FATTY ACID BINDING PROTEINS (FABPs), METHODS OF USE AND METHODS OF MAKING” (Celloram, inc., priority 2024, published 2025).
Entries after “also recorded” stand apart in the source; their conditions may differ.

How the values were obtained:
OVCAR5 cells = assay: Proliferation assay (Incucyte confluency), OVCAR5; format: cell-based, human; conditions: 4 days
Experimental: (§1) COS-7, MDA-MB-231, and HepG2, were cultured in Dulbecco's modified Eagle's medium (DMEM) supplemented with 10% fetal bovine serum (Invitrogen Life Sciences, Carlsbad, CA). BT-549, OVCAR5 and OVCAR8 cells were cultured in L-Glutamine containing RPMI medium supplemented with 10% fetal calf serum (Invitrogen Life Sciences, Carlsbad, CA). The primary Human Mammary Epithelial Cells (HMEC) were cultured in mammary epithelial cell complete medium (basal medium plus rH-Insulin (5 μg/mL); L-Glutamine (6 mM); Epinephrine (1 μM); Apo-Transferrin (5 μg/mL); rH-TGF-α (0.5 ng/mL); ExtractP (0.4%); Hydrocortisone Hemisuccinate (100 ng/mL)).
(§2) 2000 cells were plated in each well of 96-well plate. The next day cells were treated with compounds and incubated in Incucyte for 4 days. Images taken every 4 hours for the duration of the time were analyzed to calculate percentage of confluency in response to the treatments. Growth inhibition was calculated as 1—(percentage of viable cells out of untreated cells).

FABP4 = FABP4 (Homo sapiens (Human), UniProt P15090); assay: Fluorescence (ANS) competition binding assay, FABP4; conditions: ANS displacement
Experimental: (§3) This example illustrates a two-step fluorescence binding assay study used to determine the binding affinity of the various inhibitor compounds disclosed herein with the various FABPs: FABP3, FABP4, FABP5 and FABP7. Further secondary screening studies were carried out for compounds with high binding affinities toward the FABPs and based on their ability to activate the nuclear receptors PPARα, PPARγ, or PPARδ.
(§4) Binding assays for FABP3, FABP4, FABP5 and FABP7 were carried out by fluorescence titrations. His-tagged FABPs were bacterially expressed in E. coli, purified using Ni Sepharose beads, and the equilibrium dissociation constants (Kd) that characterize their interactions with different inhibitor compounds were measured by fluorescence competition assays. The method entails two steps as described in e.g., Lin, Q. et al., “Ligand selectivity of the peroxisome proliferator-activated receptor alpha,” Biochemistry 38, 185-190, doi:10.1021/bi9816094 [pii](1999). In the first step, Kd for the association of the protein with the fluorescent fatty acid probe ANS was measured. Protein (2 μM) was titrated with ANS from a concentrated solution in DMSO. Ligand binding was monitored by following the increase in the fluorescence of the ligand upon binding to the protein, and Kd for the association of ANS with the each FABP was computed from titration curves as described in e.g., Norris, A. W. & Li, E., “Fluorometric titration of the CRABPs,” Methods Mol Biol 89, 123-139 (1998)). In the second step, Kds for binding of non-fluorescent ligands were measured by monitoring their ability to displace ANS in the binding pocket of the protein. Each FABP was precomplexed with ANS at 1:1 molar ratio and titrated with the different compounds whose binding was reflected by a decrease in probe fluorescence. Kds were extracted from the EC50 of the competition curve and the measured Kd for ANS.

FABP5 = FABP5 (Homo sapiens (Human), UniProt Q01469); assay: Fluorescence (ANS) competition binding assay, FABP5; conditions: ANS displacement
Experimental: as §3, §4

[1] = Single dose IV and PO PK study in C57BL/6 mice; format: in vivo; conditions: male C57BL/6 mice
Experimental: C57BL/6 male mice or Han Wistar rats were used, n=3 for each administration route and compound. Single dose of each compound was administered orally (PO, 10 mg/Kg) or by intravenous administration (IV, 1 mg/Kg). Following intravenous and oral administration, blood samples (ca 0.2 mL) were collected and compound amount was measured by HLPC. For IV group, blood samples were collected at 0.083, 0.25, 0.5, 1, 2, 4, 6, 8, and 24 hours post-dose. For PO group, blood samples were collected at 0.25, 0.5, 1, 2, 4, 6, 8, and 24 hours post-dose.

PPARα = PPARα (Homo sapiens (Human), UniProt Q07869); assay: Transcriptional activation assay in COS7 cells, PPARα; format: cell-based; conditions: PPRE luciferase reporter, PD151 and PD152 at 10 μM
Experimental: (§5) COS-7 were cultured in 6-well plates and co-transfected with either a luciferase reporter driven by 3 copies of a PPRE and expression vector for either PPARδ, PPARα or PPARγ together with a vector harboring cDNA for β-galactosidase, serving as a transfection control. To test whether FABP4 or FABP5 mediate activation of their cognate receptors PPARγ and PPARδ, respectively, cells were also co-transfected with a plasmid harboring sequence of either FABP4 or FABP5. 18 h post-transfection, cells were placed in a serum-free medium and treated with agonist/compound. 18 h. later, cells were lysed, luciferase activity was assayed (Promega, WI, USA) and corrected for transfection efficiency by the activity of β-galactosidase.
(§6) Transcriptional activation assays were carried out utilizing COS7 cells as described above.

FABP3 = FABP3 (Homo sapiens (Human), UniProt P05413); assay: Fluorescence (ANS) competition binding assay, FABP3; conditions: ANS displacement
Experimental: as §3, §4

OVCAR8 cells = assay: Proliferation assay (Incucyte confluency), OVCAR8; format: cell-based; conditions: Homo sapiens, OVCAR-8, 96 h, 4 days, read-out: IC50, inhibition of OVCAR8 proliferation
Experimental: as §1, §2

FABP7 = FABP7 (Homo sapiens (Human), UniProt O15540); assay: Fluorescence (ANS) competition binding assay, FABP7; conditions: ANS displacement
Experimental: as §3, §4

PPARδ = PPARδ (Homo sapiens (Human), UniProt Q03181); assay: Transcriptional activation assay in COS7 cells, PPARδ; format: cell-based; conditions: PPRE luciferase reporter, PD151 and PD152 at 10 μM
Experimental: as §5, §6

BT-549 cells = assay: Proliferation assay (Incucyte confluency), BT-549; format: cell-based; conditions: Homo sapiens, 96 h, 4 days, read-out: IC50, inhibition of proliferation
Experimental: as §1, §2

MB-231 cells = assay: Proliferation assay (Incucyte confluency), MB-231; format: cell-based; conditions: Homo sapiens, 96 h, 4 days, read-out: IC50, inhibition of proliferation
Experimental: as §1, §2

PPARγ = PPARγ (Homo sapiens (Human), UniProt P37231); assay: Transcriptional activation assay in COS7 cells, PPARγ; format: cell-based; conditions: PPRE luciferase reporter, PD151 and PD152 at 10 μM
Experimental: as §5, §6

[2] = mouse, plasma, intravenous 1 mg/kg

Chain of PPARα (Q07869 whole entry, species assumed): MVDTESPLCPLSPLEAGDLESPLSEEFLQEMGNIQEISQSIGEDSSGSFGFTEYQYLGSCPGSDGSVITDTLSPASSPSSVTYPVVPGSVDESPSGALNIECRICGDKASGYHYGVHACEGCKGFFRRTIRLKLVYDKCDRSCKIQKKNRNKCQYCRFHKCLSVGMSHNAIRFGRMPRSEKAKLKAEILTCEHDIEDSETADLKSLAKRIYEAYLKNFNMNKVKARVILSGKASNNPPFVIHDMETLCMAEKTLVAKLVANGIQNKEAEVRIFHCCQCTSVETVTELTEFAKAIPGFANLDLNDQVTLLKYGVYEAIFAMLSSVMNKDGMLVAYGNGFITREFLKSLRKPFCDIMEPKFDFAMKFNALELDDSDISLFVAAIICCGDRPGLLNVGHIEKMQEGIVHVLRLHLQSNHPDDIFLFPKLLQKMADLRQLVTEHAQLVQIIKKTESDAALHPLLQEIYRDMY
Chain of PPARγ (P37231 whole entry, species assumed): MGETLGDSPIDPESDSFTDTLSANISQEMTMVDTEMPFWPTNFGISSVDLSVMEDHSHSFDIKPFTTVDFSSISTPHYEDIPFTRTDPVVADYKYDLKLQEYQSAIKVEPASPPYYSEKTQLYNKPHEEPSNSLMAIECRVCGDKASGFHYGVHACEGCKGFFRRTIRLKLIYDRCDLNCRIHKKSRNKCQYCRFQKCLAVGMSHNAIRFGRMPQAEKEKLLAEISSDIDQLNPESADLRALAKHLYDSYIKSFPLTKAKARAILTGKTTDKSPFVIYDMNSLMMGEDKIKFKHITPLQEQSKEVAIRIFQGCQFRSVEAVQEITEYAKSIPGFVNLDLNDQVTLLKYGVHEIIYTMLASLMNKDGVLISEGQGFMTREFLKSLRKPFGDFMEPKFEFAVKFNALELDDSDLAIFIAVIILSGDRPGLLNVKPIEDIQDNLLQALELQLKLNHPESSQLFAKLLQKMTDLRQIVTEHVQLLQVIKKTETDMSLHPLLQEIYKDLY
Chain of PPARδ (Q03181 whole entry, species assumed): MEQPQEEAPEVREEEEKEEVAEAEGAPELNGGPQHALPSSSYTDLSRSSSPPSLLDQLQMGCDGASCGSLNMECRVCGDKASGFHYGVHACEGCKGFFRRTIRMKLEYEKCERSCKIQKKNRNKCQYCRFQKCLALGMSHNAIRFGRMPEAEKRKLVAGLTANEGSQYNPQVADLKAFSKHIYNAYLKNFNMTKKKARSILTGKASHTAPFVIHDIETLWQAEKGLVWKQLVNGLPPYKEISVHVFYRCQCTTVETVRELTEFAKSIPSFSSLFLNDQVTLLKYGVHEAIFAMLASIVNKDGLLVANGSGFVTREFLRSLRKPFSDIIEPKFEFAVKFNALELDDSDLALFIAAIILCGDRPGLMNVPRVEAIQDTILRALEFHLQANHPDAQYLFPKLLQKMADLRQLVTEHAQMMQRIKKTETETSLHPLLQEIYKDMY
Chain of FABP5 (Q01469 whole entry, species assumed): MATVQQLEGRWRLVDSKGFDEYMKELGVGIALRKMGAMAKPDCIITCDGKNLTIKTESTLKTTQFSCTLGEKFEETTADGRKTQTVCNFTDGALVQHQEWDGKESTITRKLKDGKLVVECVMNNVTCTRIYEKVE
Chain of FABP4 (P15090 whole entry, species assumed): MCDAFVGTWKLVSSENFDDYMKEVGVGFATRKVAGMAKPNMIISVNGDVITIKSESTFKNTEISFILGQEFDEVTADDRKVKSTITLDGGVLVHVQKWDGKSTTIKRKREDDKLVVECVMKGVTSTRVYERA
Chain of FABP7 (O15540 whole entry, species assumed): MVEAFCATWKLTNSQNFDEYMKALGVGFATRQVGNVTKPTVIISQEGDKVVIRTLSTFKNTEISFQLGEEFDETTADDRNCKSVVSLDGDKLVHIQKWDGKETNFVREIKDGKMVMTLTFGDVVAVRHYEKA
Chain of FABP3 (P05413 whole entry, species assumed): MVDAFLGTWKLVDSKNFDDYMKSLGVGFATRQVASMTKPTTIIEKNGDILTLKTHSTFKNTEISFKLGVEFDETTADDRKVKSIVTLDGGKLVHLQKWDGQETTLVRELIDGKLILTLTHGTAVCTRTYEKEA

Which “Inhibition of OVCAR5 proliferation” value (OVCAR5 cells) does the source give for CC(C)Oc1nc(NC(=O)CSCC(=O)O)c(Cl)cc1C(F)(F)F [PD151, 2-((2-((3-chloro-6-isopropoxy-5-(trifluoromethyl)pyridin-2-yl)amino)-2-oxoethyl)thio)acetic acid] here?
The value was “inhibited proliferation of the two cell lines in a dose-dependent manner”.

And the Kd (FABP4)?
Its Kd is 18 nM.

What about the Kd (FABP5) of the same compound?
Its Kd is 16 nM.

And the Thalf ([1]; oral 10 mg/kg)?
Its Thalf is 4 h.

What about the clearance [1, 2] of the same compound?
Its clearance is 5.3 mL/min/kg.

What about the half-life [1, 2] of the same compound?
The half-life was 3 to 4 h.

And the bioavailability ([1]; mouse, plasma, single oral dose 10 mg/kg)?
Its bioavailability is 95%.

And the “Activation of transcription by PPARα” value (PPARα)?
The value was “None of these tested compounds activated; also recorded: none of the tested compounds PD151 and PD152 activated transcription”.

And the Kd (FABP3)?
The Kd was 250 nM.

And the IC50 (OVCAR8 cells)?
Its IC50 is 700 nM.

And the Kd (FABP7)?
The Kd was > 1000 nM.

And the “Activation of transcription by PPARδ” value (PPARδ)?
The value was “None of these tested compounds activated; also recorded: none of the tested compounds PD151 and PD152 activated transcription”.

And the IC50 (BT-549 cells)?
Its IC50 is 1010 nM.

And the IC50 (MB-231 cells)?
The IC50 was 727 nM.

And the “Activation of transcription by PPARγ” value (PPARγ)?
Its value is “None of these tested compounds activated; also recorded: none of the tested compounds PD151 and PD152 activated transcription”.
